Consider twelve compounds from ChEMBL document CHEMBL3769388, “Optimization of a Dicarboxylic Series for in Vivo Inhibition of Citrate Transport by the Solute Carrier 13 (SLC13) Family” (J Med Chem, 2016).

The structures appear in SMILES notation.

Tested on in the first series: not listed separately
The series is described as follows: Clearance in human hepatocytes assessed per 10^6 cells. The series is classed as ADME, cell-based, Hepatocyte. As to conditions: read-out: CLH.
Turning to `CC(C)(C)c1ccc(CC[C@@](O)(CC(=O)O)C(=O)O)cc1`, the hepatocyte CLint is under 6 µL/min/1e6 cells.

The next series addresses T1, Solute carrier family 13 member 2 (Homo sapiens, UniProt Q13183).
T1 sequence (Q13183 whole entry): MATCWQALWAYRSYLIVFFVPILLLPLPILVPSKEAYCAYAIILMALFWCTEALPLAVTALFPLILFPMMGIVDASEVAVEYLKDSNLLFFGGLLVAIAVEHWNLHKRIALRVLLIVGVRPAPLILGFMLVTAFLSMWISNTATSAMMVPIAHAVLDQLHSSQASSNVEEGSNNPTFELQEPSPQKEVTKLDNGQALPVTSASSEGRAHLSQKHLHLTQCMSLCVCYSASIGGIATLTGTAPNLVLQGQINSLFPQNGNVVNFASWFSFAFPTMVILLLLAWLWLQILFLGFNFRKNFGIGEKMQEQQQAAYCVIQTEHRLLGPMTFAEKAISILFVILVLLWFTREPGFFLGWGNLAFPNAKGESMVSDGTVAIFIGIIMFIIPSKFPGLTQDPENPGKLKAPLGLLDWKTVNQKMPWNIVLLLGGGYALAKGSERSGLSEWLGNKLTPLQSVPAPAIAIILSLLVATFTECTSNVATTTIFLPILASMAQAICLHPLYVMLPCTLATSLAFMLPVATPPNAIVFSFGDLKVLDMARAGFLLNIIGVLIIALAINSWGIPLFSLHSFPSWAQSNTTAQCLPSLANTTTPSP
The series can be described thus: Inhibition of NaDC1 (unknown origin) expressed in HEK293 cells assessed as inhibition of [14C]citrate uptake by microbeta plate reader analysis. The series is classed as cell-based. The note with it: read-out: IC50.
Consider `CC(C)(C)c1ccc(CC[C@@](O)(CC(=O)O)C(=O)O)cc1`, for which the IC50 is over 100000 nM.

In the next series the target is T2, Na(+)/citrate cotransporter (Homo sapiens, UniProt Q86YT5). The series is described as follows: Inhibition of NaCT (unknown origin) expressed in HEK293 cells assessed as inhibition of [14C]citrate uptake by microbeta plate reader analysis. The series is classed as cell-based. As to conditions: read-out: IC50.
T2 sequence (Q86YT5 whole entry): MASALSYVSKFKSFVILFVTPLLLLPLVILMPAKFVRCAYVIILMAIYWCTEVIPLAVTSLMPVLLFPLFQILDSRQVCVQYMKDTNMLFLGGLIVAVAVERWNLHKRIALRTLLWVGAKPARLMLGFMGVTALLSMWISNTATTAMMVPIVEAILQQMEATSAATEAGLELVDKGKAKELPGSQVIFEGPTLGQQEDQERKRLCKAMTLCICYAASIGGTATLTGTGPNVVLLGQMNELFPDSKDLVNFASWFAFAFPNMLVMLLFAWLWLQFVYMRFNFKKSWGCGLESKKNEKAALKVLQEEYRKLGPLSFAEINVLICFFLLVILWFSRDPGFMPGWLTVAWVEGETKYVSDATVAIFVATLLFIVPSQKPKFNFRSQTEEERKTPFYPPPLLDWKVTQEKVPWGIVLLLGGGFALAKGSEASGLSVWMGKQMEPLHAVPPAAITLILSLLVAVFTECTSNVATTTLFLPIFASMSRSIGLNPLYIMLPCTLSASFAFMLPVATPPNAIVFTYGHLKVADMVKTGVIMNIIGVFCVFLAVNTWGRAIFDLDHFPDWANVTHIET
As for `COc1ncccc1CCC(O)(CC(=O)O)C(=O)O` (racemic), the IC50 came out at 3370 nM.
Regarding `CCOc1ncccc1CC[C@](O)(CC(=O)O)C(=O)O`, the IC50 is over 25000 nM.
Turning to `CCOc1ncc(C)cc1CCC(O)(CC(=O)O)C(=O)O` (racemic), the IC50 was determined as 190 nM.
On to `COc1ncc(C)cc1CCC(O)(CC(=O)O)C(=O)O` (racemic), for which the IC50 is 650 nM.
As for `COc1ccc(C)cc1CCC(O)(CC(=O)O)C(=O)O` (racemic), the IC50 is 1650 nM.
On the same count and under the same terms, for `CCOc1ncccc1CCC(O)(CC(=O)O)C(=O)O` (racemic) the value was 110 nM; for `CC(C)Oc1ncccc1CCC(O)(CC(=O)O)C(=O)O` (racemic), 330 nM.
With `O=C(O)CC(O)(CCc1ccccc1)C(=O)O` (racemic), the IC50 is over 17000 nM.
With `COc1ncc(C)cc1CC[C@](O)(CC(=O)O)C(=O)O`, the IC50 is over 18000 nM.
On the same count and under the same terms, for `CCOc1ncccc1CC[C@@](O)(CC(=O)O)C(=O)O` the value was 110 nM.

The same series, now with this note: read-out: pIC50 (converted).
Consider `COc1ncc(C)cc1CCC(O)(CC(=O)O)C(=O)O` (racemic), for which the IC50 was 316 nM.

The target of the next series is T2, Na(+)/citrate cotransporter. The series is described as follows: Inhibition of NaCT in human hepatocytes assessed as [14C]-citrate uptake after 30 mins by scintillation counting method. Format: cell-based, Hepatocyte.
Conditions: not given
In the case of `CCOc1ncccc1CC[C@](O)(CC(=O)O)C(=O)O`, the IC50 was over 30000 nM.
`CCOc1ncccc1CC[C@@](O)(CC(=O)O)C(=O)O`: the IC50 worked out at 330 nM.

Tested on in another series: not listed separately
The series can be described thus: Volume of distribution at steady state in Wistar Han rat at 1 mg/kg, iv by LC-MS/MS analysis. The series is classed as ADME, organism-based. The note with it: in vivo, read-out: Vdss.
`CC(C)(C)c1ccc(CC[C@@](O)(CC(=O)O)C(=O)O)cc1`: the Vd stood at 0.24 L/kg.
Regarding `CC(C)(C)c1ccc(CCC(O)(CC(=O)O)C(=O)O)cc1` (racemic), the Vd stood at 0.45 L/kg.
Take `COc1ncc(C)cc1CC[C@](O)(CC(=O)O)C(=O)O`: the Vd came to 0.2 L/kg.
Take `CCOc1ncccc1CC[C@@](O)(CC(=O)O)C(=O)O`: the Vd stood at 0.13 L/kg.

Tested on in another series: not listed separately
The series can be described thus: Passive permeability in MDCK cells. Format: ADME, cell-based, Canis lupus familiaris. As to conditions: dog.
Compound `CC(C)(C)c1ccc(CC[C@@](O)(CC(=O)O)C(=O)O)cc1` gave a Papp of 1 ×10⁻⁶ cm/s.

Tested on in the next series: not listed separately
The series is described as follows: Renal clearance in Wistar Han rat at 1 mg/kg, iv by LC-MS/MS analysis. The series is classed as ADME, organism-based, Kidney. The note with it: in vivo.
In the case of `CC(C)(C)c1ccc(CC[C@@](O)(CC(=O)O)C(=O)O)cc1`, the CL renal turned out to be 0.5 mL/min/kg.
The compound `CC(C)(C)c1ccc(CCC(O)(CC(=O)O)C(=O)O)cc1` (racemic) came in with a CL renal of 1.9 mL/min/kg.
In turn, `COc1ncc(C)cc1CC[C@](O)(CC(=O)O)C(=O)O` showed a CL renal of 2.8 mL/min/kg.
In turn, `CCOc1ncccc1CC[C@@](O)(CC(=O)O)C(=O)O` showed a CL renal of 1.8 mL/min/kg.

Tested on in the next series: not listed separately
The series is described as follows: Half life in Wistar Han rat at 1 mg/kg, iv by LC-MS/MS analysis. Format: ADME, organism-based. The note with it: in vivo.
As to `CC(C)(C)c1ccc(CC[C@@](O)(CC(=O)O)C(=O)O)cc1`, the half-life was 1 h.
Turning to `CC(C)(C)c1ccc(CCC(O)(CC(=O)O)C(=O)O)cc1` (racemic), the half-life was 1.2 h.
`COc1ncc(C)cc1CC[C@](O)(CC(=O)O)C(=O)O` had a half-life of 1 h.
As to `CCOc1ncccc1CC[C@@](O)(CC(=O)O)C(=O)O`, the half-life is 0.9 h.

Tested on in another series: not listed separately
The series can be described thus: Fraction unbound in Wistar Han rat by equilibrium dialysis method.
Conditions: not given
Format: ADME.
With `CC(C)(C)c1ccc(CC[C@@](O)(CC(=O)O)C(=O)O)cc1`, the fraction unbound is 0.054.
As to `CC(C)(C)c1ccc(CCC(O)(CC(=O)O)C(=O)O)cc1` (racemic), the free fraction (fraction unbound) came out at 0.073.
In turn, `COc1ncc(C)cc1CC[C@](O)(CC(=O)O)C(=O)O` came in with a fraction unbound of 0.058.
Compound `CCOc1ncccc1CC[C@@](O)(CC(=O)O)C(=O)O` had a free fraction (fraction unbound) of 0.086.

Tested on in another series: not listed separately
The series is described as follows: AUC(0 to t) in Wistar Han rat at 5 mg/kg, po by LC-MS/MS analysis. Format: ADME, organism-based. The note with it: in vivo.
Take `CC(C)(C)c1ccc(CC[C@@](O)(CC(=O)O)C(=O)O)cc1`: the exposure AUC(0-t) came out at 2570 ng·h/mL.
In turn, `CC(C)(C)c1ccc(CCC(O)(CC(=O)O)C(=O)O)cc1` (racemic) registered an AUC(0-t) of 1850 ng·h/mL. The AUC(0-t) values of the last two compounds are within 1.5-fold of each other.
For `COc1ncc(C)cc1CC[C@](O)(CC(=O)O)C(=O)O`, the AUC(0-t) was 499 ng·h/mL. This AUC(0-t) lies about 3.7-fold lower than the previous one.
In turn, `CCOc1ncccc1CC[C@@](O)(CC(=O)O)C(=O)O` displayed an AUC(0-t) of 2650 ng·h/mL.

Tested on in another series: not listed separately
The series is described as follows: Total plasma clearance in Wistar Han rat at 1 mg/kg, iv by LC-MS/MS analysis. Format: ADME, organism-based.
Conditions: not given
As for `CC(C)(C)c1ccc(CC[C@@](O)(CC(=O)O)C(=O)O)cc1`, the clearance was found to be 4.5 mL/min/kg.
`CC(C)(C)c1ccc(CCC(O)(CC(=O)O)C(=O)O)cc1` (racemic) had a clearance of 8.5 mL/min/kg.
Compound `COc1ncc(C)cc1CC[C@](O)(CC(=O)O)C(=O)O` showed a clearance of 9.9 mL/min/kg.
Same read-out and setting: for `CCOc1ncccc1CC[C@@](O)(CC(=O)O)C(=O)O` the value was 6.7 mL/min/kg.

In general, Papp refers to the rate of passage across a membrane or cell layer, normalised by area and donor concentration. What is called half-life is how long it takes for the measured level to halve. High values mean slow loss, low ones fast loss. Usually fraction unbound stands for free concentration divided by total concentration. Lower therefore signals extensive binding. A word on the AUC(0-t): it is the area under the concentration-time curve up to a stated or last time point. High values mean more exposure, low ones less exposure. In general, clearance refers to a measure of how efficiently the substance is removed, as volume per time. A low value points to inefficient removal.
